From the NIST ThermoML archive (doi:10.1016/j.jct.2013.09.001)

Assay: xn = mol fraction of the nth substance listed
Conditions: 101 kPa, Liquid; for viscosity: Concentric cylinders viscometry; for mass density: Vibrating tube method

CC(=O)[O-].CCCCn1cc[n+](C)c1 [1-butyl-3-methylimidazolium acetate] + OCCNCCO
Conditions	mass density, x2 = 0 [kg/m3]	mass density, x2 = 0.2 [kg/m3]	mass density, x2 = 0.4 [kg/m3]	mass density, x2 = 0.6 [kg/m3]	mass density, x2 = 0.8 [kg/m3]	viscosity, x2 = 0 [mPa·s]	viscosity, x2 = 0.2 [mPa·s]	viscosity, x2 = 0.4 [mPa·s]	viscosity, x2 = 0.6 [mPa·s]	viscosity, x2 = 0.8 [mPa·s]
293.15 K	1056.1	1058.7	1062.8	1068.8	1079.7	549.9	425	319.4	286.8	400.1
303.15 K	1049.6	1052.2	1056.3	1062.3	1073.1	257.4	208.3	176.1	150.8	197
313.15 K	1043.5	1046.2	1050.3	1056.2	1067	135.5	114	95.9	86.8	106.3
323.15 K	1037.4	1040.1	1044.2	1050.2	1060.7	78.4	68.4	59.2	53.8	62.2
333.15 K	1031.3	1034.1	1038.1	1044.1	1054.4	49	43.9	38.9	35.4	38.9
343.15 K	1025.4	1028.2	1032.2	1038.1	1048.3	32.5	29.8	26.9	24.6	25.8
353.15 K	–	–	–	–	–	22.7	21.3	19.4	17.8	17.9
